Calls of active or inactive are those of the source. The calls are words filed in the database; no cut-off is given here.
Assays:
[1] = Induction of death receptor signaling-mediated apoptosis in human U2OS cells assessed as increase in Fas level at 30 uM after 12 to 48 hrs by Western blotting method; assay type: cell-based
MDA-MB-231 = assay: Cytotoxicity against human MDA-MB-231 cells after 48 hrs by MTT assay; assay type: functional, cell-based; settings: MDA-MB-231, 48 h
U2OS [2] = assay: Induction of DNA damage in human U2OS cells by comet assay; assay type: functional, cell-based
[3] = Cytotoxicity against human HT29-AK cells after 48 hrs by MTT assay; assay type: functional, cell-based
U2OS [4] = assay: Induction of apoptosis in human U2OS cells after 48 hrs by MTT assay in presence of anti-FasL monoclonal antibody; assay type: functional, cell-based
[5] = Induction of death receptor signaling-mediated apoptosis in human U2OS cells assessed as increase in production of reactive oxygen species at 30 uM after 2 to 12 hrs by flow cytometry relative to control; assay type: cell-based; settings: TDE = time-dependent effect
[6] = Induction of death receptor signaling-mediated apoptosis in human U2OS cells assessed as increase caspase-3 activity measuring release of pNA at 30 uM after 48 hrs by spectrophotometry; assay type: cell-based
[7] = Induction of death receptor signaling-mediated apoptosis in human U2OS cells assessed as decrease in mitochondrial membrane potential at 30 uM after 2 to 12 hrs relative to control; assay type: cell-based; settings: TDE = time-dependent effect
[8] = Induction of death receptor signaling-mediated apoptosis in human U2OS cells assessed as increase in FasL level at 30 uM after 12 to 48 hrs by Western blotting method; assay type: cell-based
[9] = Induction of death receptor signaling-mediated apoptosis in human U2OS cells assessed as decrease in cell viability at 30 uM after 48 hrs by MTT assay in presence of caspase-3 inhibitor […]; assay type: cell-based
U2OS [10] = assay: Cytotoxicity against human U2OS cells assessed as growth inhibition after 48 hrs by MTT assay relative to control; assay type: functional, cell-based
[11] = Induction of death receptor signaling-mediated apoptosis in human U2OS cells assessed as increase in Apaf-1 level at 30 uM after 12 to 48 hrs by Western blotting; assay type: cell-based
[12] = Induction of death receptor signaling-mediated apoptosis in human U2OS cells assessed decrease in as cell viability at 30 uM after 48 hrs by MTT assay in presence of caspase-9 inhibitor Z-LEHD-FMK; assay type: cell-based
HL-60 = assay: Cytotoxicity against human HL60 cells after 48 hrs by MTT assay; assay type: functional, cell-based; settings: HL-60, 48 h
U2OS [13] = assay: Induction of apoptosis in human U2OS cells assessed as cell rounding at 30 uM after 48 hrs by phase-contrast microscopic analysis; assay type: functional, cell-based
U2OS [14] = assay: Induction of apoptosis in human U2OS cells after 48 hrs by MTT assay in presence of cyclosporine A; assay type: functional, cell-based
[15] = Induction of death receptor signaling-mediated apoptosis in human U2OS cells assessed as increase in FADD level at 30 uM after 12 to 48 hrs by Western blotting method; assay type: cell-based
U2OS [16] = assay: Induction of apoptosis in human U2OS cells assessed as cell shrinking at 30 uM after 48 hrs by phase-contrast microscopic analysis; assay type: functional, cell-based
[17] = Induction of death receptor signaling-mediated apoptosis in human U2OS cells assessed as increase in caspase-9 level at 30 uM after 12 to 48 hrs by Western blotting; assay type: cell-based
[18] = Induction of death receptor signaling-mediated apoptosis in human U2OS cells assessed as increase in cytochrome c level at 30 uM after 12 to 48 hrs by Western blotting; assay type: cell-based
[19] = Induction of death receptor signaling-mediated apoptosis in human U2OS cells assessed as increase in caspase-8 level at 30 uM after 12 to 48 hrs by Western blotting method; assay type: cell-based
[20] = Induction of death receptor signaling-mediated apoptosis in human U2OS cells assessed as increase caspase-9 activity measuring release of pNA at 30 uM after 48 hrs by spectrophotometry; assay type: cell-based
[21] = Induction of death receptor signaling-mediated apoptosis in human U2OS cells assessed as increase caspase-8 activity measuring release of pNA at 30 uM after 48 hrs by spectrophotometry; assay type: cell-based
MCF7 = assay: Cytotoxicity against human MCF7 cells after 48 hrs by MTT assay; assay type: functional, cell-based; settings: MCF7, 48 h
U2OS [22] = assay: Induction of apoptosis in human U2OS cells after 48 hrs by MTT assay in presence of ROS scavenger NAC; assay type: functional, cell-based
[23] = Induction of death receptor signaling-mediated apoptosis in human U2OS cells assessed as increase in AIF level at 30 uM after 12 to 48 hrs by Western blotting; assay type: cell-based
U2OS [24] = assay: Cytotoxicity against human U2OS cells after 48 hrs by MTT assay; assay type: functional, cell-based
[25] = Induction of death receptor signaling-mediated apoptosis in human U2OS cells assessed as decrease in pro-caspase3 level at 30 uM after 12 to 48 hrs by Western blotting method; assay type: cell-based
[26] = Induction of death receptor signaling-mediated apoptosis in human U2OS cells assessed as decrease in Bcl-2 level at 30 uM after 12 to 48 hrs by Western blotting; assay type: cell-based
[27] = Induction of death receptor signaling-mediated apoptosis in human U2OS cells assessed as increase in Bax level at 30 uM after 12 to 48 hrs by Western blotting; assay type: cell-based
[28] = Induction of death receptor signaling-mediated apoptosis in human U2OS cells assessed as increase in Endo-G level at 30 uM after 12 to 48 hrs by Western blotting; assay type: cell-based
[29] = Induction of death receptor signaling-mediated apoptosis in human U2OS cells assessed as decrease in cell viability at 30 uM after 48 hrs by MTT assay in presence of caspase-8 inhibitor Z-IETD-FMK; assay type: cell-based
[30] = Induction of death receptor signaling-mediated apoptosis in human U2OS cells assessed as increase in FasL expression at 30 uM after 12 hrs using FasL-FITC mAb by flow cytometry (Rvb= 1.23+/-0.11 %); assay type: cell-based
[31] = Induction of death receptor signaling-mediated apoptosis in human U2OS cells assessed as increase in Fas expression at 30 uM after 12 hrs using FasL-FITC mAb by flow cytometry (Rvb= 2.01+/-0.74 %); assay type: cell-based
[32] = Cytotoxicity against human FOB cells assessed as reduction in cell number after 48 hrs by MTT assay relative to control; assay type: cell-based
COLO 205 = assay: Cytotoxicity against human COLO205 cells after 48 hrs by MTT assay; assay type: functional, cell-based; settings: COLO 205, 48 h
U-937 = assay: Cytotoxicity against human U937 cells after 48 hrs by MTT assay; assay type: functional, cell-based; settings: U-937, 48 h
[33] = Induction of death receptor signaling-mediated apoptosis in human U2OS cells assessed as decrease in Bid level at 30 uM after 12 to 48 hrs by Western blotting; assay type: cell-based

COc1cccc(Nc2nc(-c3cccc(F)c3)nc3ccc(F)cc23)c1
Activity [1]: Active
IC50 (MDA-MB-231): 47.1 µM
Activity (U2OS [2]): Dose-dependent effect
IC50 [3]: 40.4 µM
Activity (U2OS [4]): inactive
Activity [5]: tde
Activity [6]: Active
Activity [7]: tde
Activity [8]: Active
Activity [9]: inactive
growth inhibition (GI) (U2OS [10]): Dose-dependent effect
Activity [11]: Active
Activity [12]: inactive
IC50 (HL-60): 35.5 µM
Activity (U2OS [13]): Active
Activity (U2OS [14]): inactive
Activity [15]: Active
Activity (U2OS [16]): Active
Activity [17]: Active
Activity [18]: Active
Activity [19]: Active
Activity [20]: Active
Activity [21]: Active
IC50 (MCF7): 46.3 µM
Activity (U2OS [22]): inactive
Activity [23]: Active
IC50 (U2OS [24]): 30.3 µM
Activity [25]: Active
Activity [26]: Active
Activity [27]: Active
Activity [28]: Active
Activity [29]: inactive
Activity [30]: 76.2%
Activity [31]: 76.2%
Activity [32]: Non-toxic
IC50 (COLO 205): 44.7 µM
IC50 (U-937): 39.6 µM
Activity [33]: Active

— ChEMBL document CHEMBL1817546, “The synthesized novel fluorinated compound (LJJ-10) induces death receptor- and mitochondria-dependent apoptotic cell death in the human osteogenic sarcoma U-2 OS cells” (Eur J Med Chem, 2011)
